Consider 27 compounds from US12649723B2, “Carbonohydrazonoyl dicyanide compounds comprising 2 or more aryl or heteroaryl connected via linker and use thereof” (KOREA INSTITUTE OF SCIENCE AND TECHNOLOGY, priority 2020, dated 2026).

Structures are written as SMILES.

The target of data set [1] is T1, tau protein (Homo sapiens, UniProt P10636).
T1 construct: fused on or other part: Split fluorescent-protein halves for BiFC are fused to tau; In the published tau-BiFC line these are Venus VN173 and VC155
The experiment in a line: Tau-BiFC cell model: inhibition of tau protein aggregation. The format is cell-based. Particulars: for remaining activity at 10 µM: 48 h, compound 10 μM, BiFC fluorescence, Forskolin-only group = 100% tau protein-aggregated state, read-out: Response (% @10 μM); for IC50: Tau BiFC in cells, with Forskolin 30 μM, 48 hours. As to the method:
(§1) In order to select novel tau protein aggregation-inhibiting substances, tau-BiFC cell model, in which formation of tau oligomers in living cells is easily observed, was used. Tau-BiFC cells were aliquoted into a 384-well plate. On the next day, the cells were treated with each of the compounds prepared according to Examples 1 to 175 at concentrations of 1 μM, 3 μM, and 10 μM, together with Forskolin (at a treatment concentration of 30 μM), which is a compound inducing tau protein aggregation by activating tau […] PKA. After 48 hours, nuclei in the cells were stained using Hoechst (at a treatment concentration of 2 μg/mL), and BiFC fluorescence intensity was automatically measured using Operetta (PerkinElmer) to count stained nuclei in each well out of the entire well plate. The group treated only with Forskolin, which induces tau protein aggregation, was set to a reference point of a 100% tau protein-aggregated state, and the effects of the compounds were confirmed using the equation “BiFC fluorescence intensity due to compound synthesized according to embodiment of present invention/(fluorescence intensity of control group treated only with Forskolin inducing tau protein aggregation−fluorescence intensity of untreated control group)×100”. Furthermore, the degree of cytotoxicity induced by the newly synthesized compound was also measured based on the 100% cell viability of the group treated only with Forskolin as a reference, and the cytotoxicity value of each compound was calculated using the equation “(number of stained nuclei in group treated with compound/number of stained nuclei in group treated with Forskolin)×100”. Based on the treatment results, substances inhibiting intracellular tau protein aggregation were selected from a series of candidate groups showing a tau protein aggregation inhibition rate of 70% or more and cell viability of 100% at a compound treatment concentration of 10 μM or more.
(§2) In order to evaluate dose-dependent tau protein aggregation inhibition effects of the compounds selected according to Experimental Example 1 on tau protein aggregation, tau-BiFC cells were treated with the selected compounds at concentrations of 0.03 μM, […], 0.3 μM, 1 μM, 3 μM, 10 μM, and 30 μM, respectively, together with Forskolin (at a treatment concentration of 30 μM), which is a tau protein aggregation inducing substance. After 48 hours, tau protein aggregation reaction and degrees of cytotoxicity were analyzed by observing images of the cells. IC50 and toxicity of the compounds were analyzed by way of nonlinear regression analysis of prism software (Graph Pad).

The subject of data set [2] is Tau-BiFC cells. Briefly: Cell viability (cytotoxicity) in tau-BiFC cells, count of stained nuclei. Particulars: compound 10 μM; Forskolin-only group = 100% cell viability. The class given is cell-based. The protocol:
as §1, §2

T1 sequence (P10636 2-441 isoform P10636-8 limits assumed): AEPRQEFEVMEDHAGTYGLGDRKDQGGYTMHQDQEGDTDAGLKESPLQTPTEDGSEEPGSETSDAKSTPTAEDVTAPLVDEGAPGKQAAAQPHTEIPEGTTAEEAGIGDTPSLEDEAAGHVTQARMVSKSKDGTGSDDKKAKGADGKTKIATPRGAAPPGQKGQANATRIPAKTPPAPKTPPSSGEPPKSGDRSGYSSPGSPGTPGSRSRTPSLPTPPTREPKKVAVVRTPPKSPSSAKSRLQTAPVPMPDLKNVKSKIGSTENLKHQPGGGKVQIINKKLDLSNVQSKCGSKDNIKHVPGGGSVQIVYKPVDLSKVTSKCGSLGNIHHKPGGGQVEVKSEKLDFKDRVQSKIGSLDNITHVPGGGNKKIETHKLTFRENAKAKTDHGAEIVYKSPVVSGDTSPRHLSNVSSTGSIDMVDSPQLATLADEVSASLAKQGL

Turning to `N#CC(C#N)=NNc1ccc(NC(=O)c2cscn2)nc1` [Compound 112, (6-(thiazole-4-carboxamido)pyridin-3-yl)carbonohydrazonoyl dicyanide], in data set [1], the remaining activity at 10 µM turned out to be 0% and the IC50 (as a rule, the concentration at which inhibition is half-maximal) was 0.2 µM. In data set [2], the “Cell viability (% @10 μM)” value turned out to be 158.2%.

`N#CC(C#N)=NNc1ccc(OCc2ccccc2)c(C(F)(F)F)c1` [Compound 97, (4-(benzyloxy)-3-(trifluoromethyl)phenyl)carbonohydrazonoyl dicyanide]: in data set [1], the remaining activity at 10 µM is 0% and the IC50 was 0.1 µM. In addition, in data set [2], the “Cell viability (% @10 μM)” value was 27.1%.

As to `Cc1cc(NN=C(C#N)C#N)ccc1NC(=O)c1cscn1` [Compound 111, (3-methyl-4-(thiazole-4-carboxamido)phenyl)carbonohydrazonoyl dicyanide], in data set [1], the remaining activity at 10 µM is 0% and the IC50 is 0.5 µM. The “Cell viability (% @10 μM)” value in data set [2] amounted to 136.4%.

Consider `COc1ccc(NC(=O)c2ccc(NN=C(C#N)C#N)cc2)cc1` [Compound 44, (4-(4-methoxyphenylcarbamoyl)phenyl)carbonohydrazonoyl dicyanide], for which, in data set [1], the remaining activity at 10 µM amounted to 0%. In data set [2], the “Cell viability (% @10 μM)” value stood at 70.4%.

`Cc1ccc(NS(=O)(=O)c2ccc(NN=C(C#N)C#N)cc2)cn1` [Compound 65, (4-(N-(6-methylpyridin-3-yl)sulfamoyl)phenyl)carbonohydrazonoyl dicyanide]: the remaining activity at 10 µM in data set [1] is 72.6%. Besides, the “Cell viability (% @10 μM)” value in data set [2] turned out to be 111.4%.

For `N#CC(C#N)=NNc1ccc(OCc2cc3ccccc3s2)cc1` [Compound 130, (4-(benzo[b]thiophen-2-ylmethoxy)phenyl)carbonohydrazonoyl dicyanide], in data set [1], the remaining activity at 10 µM is 0%. Also, in data set [2], the “Cell viability (% @10 μM)” value was 113%.

For the compound `Cc1cc(C(=O)Nc2ccc(NN=C(C#N)C#N)cn2)ccc1F` [Compound 21, (6-(4-fluoro-3-methylbenzamido)pyridin-3-yl)carbonohydrazonoyl dicyanide], in data set [1], the remaining activity at 10 µM was found to be 0% and the IC50 was 0.75 µM. In addition, in data set [2], the “Cell viability (% @10 μM)” value worked out at 104.3%.

Regarding `N#CC(C#N)=NNc1ccc(NC(=O)c2cocn2)nc1` [Compound 113, (6-(oxazole-4-carboxamido)pyridin-3-yl)carbonohydrazonoyl dicyanide], in data set [1], the remaining activity at 10 µM amounted to 0% and the IC50 came out at 0.2 µM. In data set [2], the “Cell viability (% @10 μM)” value is recorded as 147%.

Regarding `N#CC(C#N)=NNc1ccc(OCc2cccnn2)cc1` [Compound 127, (4-(pyridazin-3-ylmethoxy)phenyl)carbonohydrazonoyl dicyanide], in data set [1], the remaining activity at 10 µM stood at 0% and the IC50 worked out at 1.2 µM. Further, in data set [2], the “Cell viability (% @10 μM)” value is on record as 134.9%.

Take `N#CC(C#N)=NNc1ccc(Oc2cccc(F)c2)cc1` [Compound 94, (4-(3-fluorophenoxy)phenyl)carbonohydrazonoyl dicyanide]: in data set [1], the remaining activity at 10 µM was determined as 0% and half-maximal inhibition (IC50) required 1.28 µM. For the same compound, in data set [2], the “Cell viability (% @10 μM)” value is 33.6%.

For the compound `Cc1cnc(C(=O)Nc2nc3ncc(NN=C(C#N)C#N)cc3s2)cn1` [Compound 33, (2-(5-methylpyrazine-2-carboxamido)thiazolo[4,5-b]pyridin-6-yl)carbonohydrazonoyl dicyanide], the remaining activity at 10 µM in data set [1] was found to be 63.9%. Further, the “Cell viability (% @10 μM)” value in data set [2] is listed as 125%.

For `N#CC(C#N)=NNc1ccc(OCc2ccc(C(F)(F)F)cc2)nc1` [Compound 96, (6-(4-(trifluoromethyl)benzyloxy)pyridin-3-yl)carbonohydrazonoyl dicyanide], in data set [1], the remaining activity at 10 µM was found to be 0% and the IC50 is 0.4 µM. Moreover, in data set [2], the “Cell viability (% @10 μM)” value was found to be 27.5%.

`Cc1ccccc1C(=O)Nc1ccc(NN=C(C#N)C#N)cn1` [Compound 25, (6-(2-methylbenzamido)pyridin-3-yl)carbonohydrazonoyl dicyanide]: in data set [1], the remaining activity at 10 µM worked out at 0% and the IC50 was found to be 0.39 µM. Moreover, the “Cell viability (% @10 μM)” value in data set [2] turned out to be 122.4%.

For the compound `N#CC(C#N)=NNc1ccc(Oc2ccncc2)c(F)c1` [Compound 80, (3-fluoro-4-(pyridin-4-yloxy)phenyl)carbonohydrazonoyl dicyanide], the remaining activity at 10 µM in data set [1] is 68%. In data set [2], the “Cell viability (% @10 μM)” value was determined as 112.3%.

Take `N#CC(C#N)=NNc1ccc(NS(=O)(=O)c2cccnc2)nc1` [Compound 60, (6-(pyridin-3-sulfonamido)pyridin-3-yl)carbonohydrazonoyl dicyanide]: in data set [1], the remaining activity at 10 µM amounted to 90.2%. For the same compound, in data set [2], the “Cell viability (% @10 μM)” value turned out to be 116.9%.

For the compound `N#CC(C#N)=NNc1ccc(OCc2ccccc2)cc1` [Compound 117, (4-(benzyloxy)phenyl)carbonohydrazonoyl Dicyanide], in data set [1], the remaining activity at 10 µM came to 16.6% and half-maximal inhibition (IC50) required 1.24 µM. The “Cell viability (% @10 μM)” value in data set [2] is given as 126.0%.

Take `N#CC(C#N)=NNc1ccc(OCCc2ccc(Cl)cc2)c(C(F)(F)F)c1` [Compound 133, (4-(4-chlorophenethoxy)-3-(trifluoromethyl)phenyl)carbonohydrazonoyl dicyanide]: in data set [1], the remaining activity at 10 µM was 0%. For the same compound, the “Cell viability (% @10 μM)” value in data set [2] was 39.7%.

For `N#CC(C#N)=NNc1ccc(OCc2ccccc2)nc1` [Compound 95, (6-(benzyloxy)pyridin-3-yl)carbonohydrazonoyl dicyanide], the remaining activity at 10 µM in data set [1] worked out at 0%. The “Cell viability (% @10 μM)” value in data set [2] is 71.9%.

For `COc1ccc(CCOc2ccc(NN=C(C#N)C#N)cc2C(F)(F)F)cc1` [Compound 134, (4-(4-methoxyphenethoxy)-3-(trifluoromethyl)phenyl)carbonohydrazonoyl dicyanide], the remaining activity at 10 µM in data set [1] stood at 0%. Besides, the “Cell viability (% @10 μM)” value in data set [2] is listed as 38.1%.

With `N#CC(C#N)=NNc1ccc(NC(=O)c2cnco2)nc1` [Compound 114, (6-(oxazole-5-carboxamido)pyridin-3-yl)carbonohydrazonoyl dicyanide], in data set [1], the remaining activity at 10 µM was 0% and inhibition was half-maximal at 1.5 µM (IC50). Also, the “Cell viability (% @10 μM)” value in data set [2] is given as 149.5%.

Regarding `N#CC(C#N)=NNc1ccc(OCCc2ccccc2)cc1` [Compound 122, (4-phenethoxyphenyl)carbonohydrazonoyl Dicyanide], in data set [1], the remaining activity at 10 µM was 11.7% and half-maximal inhibition (IC50) required 1.86 µM. Further, the “Cell viability (% @10 μM)” value in data set [2] is 92.9%.

For the compound `N#CC(C#N)=NNc1ccc(OCc2nc3ccccc3[nH]2)cc1` [Compound 126, (4-((1H-benzo[d]imidazol-2-yl)methoxy)phenyl)carbonohydrazonoyl dicyanide], in data set [1], the remaining activity at 10 µM turned out to be 0% and half-maximal inhibition (IC50) required 0.1 µM. Besides, in data set [2], the “Cell viability (% @10 μM)” value is given as 133.2%.

For the compound `COc1ccc(S(=O)(=O)Nc2ccc(NN=C(C#N)C#N)cn2)cc1` [Compound 59, (6-(4-methoxyphenylsulfonamido)pyridin-3-yl)carbonohydrazonoyl dicyanide], the remaining activity at 10 µM in data set [1] came out at 74.3%. The “Cell viability (% @10 μM)” value in data set [2] stood at 128.2%.

In the case of `Cc1ccc(S(=O)(=O)Nc2ccc(NN=C(C#N)C#N)cn2)cc1` [Compound 63, (6-(4-methylphenylsulfonamido)pyridin-3-yl)carbonohydrazonoyl dicyanide], the remaining activity at 10 µM in data set [1] stood at 11.5%. Besides, the “Cell viability (% @10 μM)” value in data set [2] worked out at 136.7%.

As to `N#CC(C#N)=NNc1ccc(Oc2cnccn2)cc1` [Compound 84, (4-(pyrazin-2-yloxy)phenyl)carbonohydrazonoyl dicyanide], in data set [1], the remaining activity at 10 µM worked out at 0% and the IC50 was determined as 2.12 µM. Also, in data set [2], the “Cell viability (% @10 μM)” value is recorded as 111.4%.

Take `Cc1cc(NN=C(C#N)C#N)ccc1Oc1cccnc1` [Compound 74, (3-methyl-4-(pyridin-3-yloxy)phenyl)carbonohydrazonoyl dicyanide]: in data set [1], the remaining activity at 10 µM was 0% and half-maximal inhibition (IC50) was put at 0.44 µM. Moreover, the “Cell viability (% @10 μM)” value in data set [2] was found to be 92.7%.

Turning to `N#CC(C#N)=NNc1ccc(Oc2cccnc2)cc1` [Compound 85, (4-(pyridin-3-yloxy)phenyl)carbonohydrazonoyl dicyanide], in data set [1], the remaining activity at 10 µM came out at 0% and the IC50 is 1.58 µM. In addition, the “Cell viability (% @10 μM)” value in data set [2] came out at 99.1%.
